Test [1] can be described thus: Inhibition of cAMP dependent protein kinase catalytic subunit of bovine heart. Further details: species or system Bos taurus.
The next test deals with Protein kinase C (PKC). In words: Inhibition of purified rat brain protein kinase C (RB-PKC).
Test [2] addresses Proto-oncogene tyrosine-protein kinase Src (Homo sapiens, UniProt P12931). The test is described as follows: Inhibition of Src protein tyrosine kinase.
The nature of test [3]: Inhibition of purified rat brain casein kinase II.
Test [4] addresses T1, Protein kinase C epsilon type (Homo sapiens, UniProt Q02156).
T1 sequence (Q02156 whole entry): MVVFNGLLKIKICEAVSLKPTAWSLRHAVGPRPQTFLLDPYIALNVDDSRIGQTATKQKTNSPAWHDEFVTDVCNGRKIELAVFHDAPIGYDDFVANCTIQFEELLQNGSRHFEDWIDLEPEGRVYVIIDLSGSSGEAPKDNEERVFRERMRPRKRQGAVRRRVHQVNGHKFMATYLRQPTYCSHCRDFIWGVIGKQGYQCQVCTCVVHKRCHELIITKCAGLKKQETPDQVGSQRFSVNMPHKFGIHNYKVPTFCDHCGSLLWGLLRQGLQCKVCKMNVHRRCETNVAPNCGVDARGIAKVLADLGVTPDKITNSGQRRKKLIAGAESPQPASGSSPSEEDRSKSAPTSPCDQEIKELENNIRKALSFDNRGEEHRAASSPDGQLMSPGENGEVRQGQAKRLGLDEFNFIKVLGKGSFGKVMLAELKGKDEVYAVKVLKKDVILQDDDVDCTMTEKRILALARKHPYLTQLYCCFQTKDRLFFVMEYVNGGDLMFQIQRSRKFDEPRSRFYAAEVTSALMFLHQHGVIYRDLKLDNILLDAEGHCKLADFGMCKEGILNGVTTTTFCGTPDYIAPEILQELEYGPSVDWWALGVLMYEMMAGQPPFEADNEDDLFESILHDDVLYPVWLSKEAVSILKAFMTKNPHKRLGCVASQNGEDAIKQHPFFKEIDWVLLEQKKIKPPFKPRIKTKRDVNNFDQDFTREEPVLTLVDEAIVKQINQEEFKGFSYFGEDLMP
The test is described as follows: Inhibition of Protein kinase C epsilon.

Test [5] concerns the target Protein kinase C gamma type (Homo sapiens, UniProt P05129). In words: Inhibition of Protein kinase C gamma.
The target of test [6] is T2, Protein kinase C zeta type (Homo sapiens, UniProt Q05513).
T2 sequence (Q05513 whole entry): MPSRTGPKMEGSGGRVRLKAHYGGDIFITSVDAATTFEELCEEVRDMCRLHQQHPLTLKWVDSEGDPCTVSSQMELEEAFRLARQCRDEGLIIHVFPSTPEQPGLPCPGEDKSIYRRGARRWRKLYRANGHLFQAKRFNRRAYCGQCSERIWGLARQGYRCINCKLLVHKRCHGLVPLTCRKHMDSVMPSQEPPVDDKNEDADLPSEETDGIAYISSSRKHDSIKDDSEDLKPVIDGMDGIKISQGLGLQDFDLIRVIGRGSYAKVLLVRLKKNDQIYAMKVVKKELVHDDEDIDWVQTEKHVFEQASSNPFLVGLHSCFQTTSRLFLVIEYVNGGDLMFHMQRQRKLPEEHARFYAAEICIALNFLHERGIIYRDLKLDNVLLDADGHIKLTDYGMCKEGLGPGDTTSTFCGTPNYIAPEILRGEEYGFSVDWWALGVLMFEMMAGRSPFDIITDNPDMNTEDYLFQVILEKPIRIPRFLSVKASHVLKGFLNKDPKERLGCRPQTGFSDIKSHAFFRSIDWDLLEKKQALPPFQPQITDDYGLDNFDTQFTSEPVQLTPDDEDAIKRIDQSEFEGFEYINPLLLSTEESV
The test is described as follows: Inhibition of Protein kinase C zeta.

Test [7] concerns the target T3, Protein kinase C beta type (Homo sapiens, UniProt P05771). The test is described as follows: Inhibition of Protein kinase C beta 1.
The target of test [8] is T3, Protein kinase C beta type. In words: Inhibition of Protein kinase C beta 2.
The target of test [9] is Protein kinase C eta type (Homo sapiens, UniProt P24723). In words: Inhibition of Protein kinase C eta.
Protein kinase C eta type, sequence (P24723 whole entry): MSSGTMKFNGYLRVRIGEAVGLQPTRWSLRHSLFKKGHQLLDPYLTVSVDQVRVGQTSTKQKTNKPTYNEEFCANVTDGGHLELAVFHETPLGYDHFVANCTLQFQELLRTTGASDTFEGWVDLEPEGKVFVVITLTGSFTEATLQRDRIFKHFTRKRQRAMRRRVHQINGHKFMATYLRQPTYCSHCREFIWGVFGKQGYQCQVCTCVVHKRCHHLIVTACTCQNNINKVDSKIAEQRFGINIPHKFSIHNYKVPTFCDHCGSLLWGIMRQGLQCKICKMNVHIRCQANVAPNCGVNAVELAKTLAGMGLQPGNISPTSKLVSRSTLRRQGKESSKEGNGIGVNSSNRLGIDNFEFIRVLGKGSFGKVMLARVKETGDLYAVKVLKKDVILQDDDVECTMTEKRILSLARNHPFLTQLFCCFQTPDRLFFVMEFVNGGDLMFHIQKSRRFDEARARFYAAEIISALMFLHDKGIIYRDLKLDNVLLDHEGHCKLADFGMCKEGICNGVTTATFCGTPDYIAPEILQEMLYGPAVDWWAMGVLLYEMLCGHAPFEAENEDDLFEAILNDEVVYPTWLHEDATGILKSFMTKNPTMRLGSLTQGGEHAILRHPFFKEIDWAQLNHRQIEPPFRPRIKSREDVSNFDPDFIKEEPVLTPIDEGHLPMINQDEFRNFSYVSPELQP
For test [10], the target named is Protein kinase C alpha type (Homo sapiens, UniProt P17252). The test is described as follows: Inhibition of Protein kinase C alpha.
The target of test [11] is Protein kinase C delta type (Homo sapiens, UniProt Q05655). The test is described as follows: Inhibition of Protein kinase C delta.
Protein kinase C delta type, sequence (Q05655 whole entry): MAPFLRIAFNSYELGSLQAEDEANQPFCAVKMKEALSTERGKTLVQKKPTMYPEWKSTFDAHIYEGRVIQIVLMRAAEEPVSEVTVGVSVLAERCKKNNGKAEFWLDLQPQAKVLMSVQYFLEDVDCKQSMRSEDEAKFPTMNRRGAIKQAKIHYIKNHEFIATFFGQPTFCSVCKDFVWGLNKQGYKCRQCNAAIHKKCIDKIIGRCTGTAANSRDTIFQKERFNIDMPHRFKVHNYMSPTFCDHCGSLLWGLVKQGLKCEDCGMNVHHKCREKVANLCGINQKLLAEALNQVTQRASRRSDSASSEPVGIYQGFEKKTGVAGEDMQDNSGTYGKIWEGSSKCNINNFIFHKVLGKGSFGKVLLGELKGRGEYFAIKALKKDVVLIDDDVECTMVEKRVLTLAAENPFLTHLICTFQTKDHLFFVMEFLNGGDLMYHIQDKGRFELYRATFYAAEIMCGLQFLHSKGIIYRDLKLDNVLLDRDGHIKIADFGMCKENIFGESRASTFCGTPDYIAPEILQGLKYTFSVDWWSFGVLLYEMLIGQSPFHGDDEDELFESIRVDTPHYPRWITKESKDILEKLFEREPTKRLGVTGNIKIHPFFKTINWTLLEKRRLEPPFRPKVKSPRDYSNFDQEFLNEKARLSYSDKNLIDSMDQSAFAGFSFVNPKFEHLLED
In a further test the target is CaM kinase II (Homo sapiens, UniProt Q13557+Q13555+Q13554+Q9UQM7). The test is described as follows: Inhibition of purified mammalian brain [Ca(2+)]/Calmodulin dependent kinase.

Proto-oncogene tyrosine-protein kinase Src, sequence (P12931 2-536 limits assumed): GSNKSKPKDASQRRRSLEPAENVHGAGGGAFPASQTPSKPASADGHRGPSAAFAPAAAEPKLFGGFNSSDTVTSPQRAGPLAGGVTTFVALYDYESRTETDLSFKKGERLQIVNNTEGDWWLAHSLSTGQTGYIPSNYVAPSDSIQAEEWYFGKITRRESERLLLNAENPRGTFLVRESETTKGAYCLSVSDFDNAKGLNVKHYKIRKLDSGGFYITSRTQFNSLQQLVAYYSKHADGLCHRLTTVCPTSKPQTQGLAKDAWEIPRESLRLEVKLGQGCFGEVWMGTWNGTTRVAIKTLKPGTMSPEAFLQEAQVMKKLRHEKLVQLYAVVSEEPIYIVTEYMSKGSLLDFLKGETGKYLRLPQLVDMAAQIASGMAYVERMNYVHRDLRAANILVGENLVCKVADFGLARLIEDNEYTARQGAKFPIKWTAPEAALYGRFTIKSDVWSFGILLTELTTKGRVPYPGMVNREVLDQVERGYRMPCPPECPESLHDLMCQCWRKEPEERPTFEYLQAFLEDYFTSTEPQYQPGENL
T3 sequence (P05771 whole entry): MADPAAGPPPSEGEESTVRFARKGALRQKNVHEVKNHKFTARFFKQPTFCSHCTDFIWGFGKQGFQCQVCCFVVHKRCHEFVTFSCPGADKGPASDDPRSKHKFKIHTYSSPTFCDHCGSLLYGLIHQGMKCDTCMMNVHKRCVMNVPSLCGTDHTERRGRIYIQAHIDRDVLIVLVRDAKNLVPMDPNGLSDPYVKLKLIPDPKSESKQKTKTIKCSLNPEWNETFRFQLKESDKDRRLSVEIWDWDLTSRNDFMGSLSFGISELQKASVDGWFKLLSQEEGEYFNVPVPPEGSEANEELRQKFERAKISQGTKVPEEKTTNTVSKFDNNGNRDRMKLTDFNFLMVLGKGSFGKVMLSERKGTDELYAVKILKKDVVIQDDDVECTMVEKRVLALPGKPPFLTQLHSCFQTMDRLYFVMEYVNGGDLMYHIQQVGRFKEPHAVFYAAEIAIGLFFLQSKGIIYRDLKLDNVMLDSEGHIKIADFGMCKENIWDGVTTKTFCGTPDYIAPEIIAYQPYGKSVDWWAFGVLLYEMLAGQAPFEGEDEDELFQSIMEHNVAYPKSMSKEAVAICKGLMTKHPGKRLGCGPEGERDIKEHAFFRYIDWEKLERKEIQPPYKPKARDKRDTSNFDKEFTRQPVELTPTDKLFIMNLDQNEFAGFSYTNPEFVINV

As for `CN1CCC(n2cc(C3=C(c4cn(C)c5ccccc45)C(=O)NC3=O)c3ccccc32)CC1`, the IC50 (as a rule, the point on the concentration scale where inhibition reaches its midpoint) is 7 µM in test [1], 0.2 µM against Protein kinase C (PKC), greater than 100 µM in [2] and greater than 100 µM in [3].

For `CN(C)C[C@@H]1CCn2cc(c3ccccc32)C2=C(C(=O)NC2=O)c2cn(c3ccccc23)CCO1`, the 50% inhibitory concentration (IC50) in test [1] and in test [3] was greater than 100 µM throughout.

For `CC(C)N1CCC(n2cc(C3=C(c4cn(C)c5ccccc45)C(=O)NC3=O)c3ccccc32)CC1`, the figures for the IC50 (in [1]; against Protein kinase C (PKC); in test [3]) were greater than 100 µM, 0.25 µM and greater than 100 µM, respectively.

As to `Cn1cc(C2=C(c3cn(C4CCNCC4)c4ccccc34)C(=O)NC2=O)c2ccccc21`, the results for the IC50 in [1] and in [3] were 1 µM and greater than 100 µM, respectively.

With `Cn1cc(C2=C(c3cn(C4CCN(C(=O)OC(C)(C)C)CC4)c4ccccc34)C(=O)NC2=O)c2ccccc21`, the IC50 in test [4] is 6 µM; in test [5] it was 5 µM; in [6], greater than 100 µM; in test [7] it was 0.2 µM; in test [8], 0.08 µM; in test [9] it was 8 µM. The IC50 in test [10] worked out at 6 µM; in [11] it was 7 µM.

On to `Cn1cc(C2=C(c3cn(C4CCN(Cc5ccccn5)CC4)c4ccccc34)C(=O)NC2=O)c2ccccc21` [ENZASTAURIN], for which the IC50 was greater than 100 µM in test [1], 0.7 µM against Protein kinase C (PKC) and greater than 100 µM in test [3].

As for `Cn1cc(C2=C(c3cn(C4CCN(Cc5ccccc5)C4)c4ccccc34)C(=O)NC2=O)c2ccccc21` (stereo unspecified), the IC50 is 9.4 µM in [4]; 3.5 µM in test [5]; greater than 100 µM in test [6]; 0.022 µM in test [7]; greater than 100 µM in test [1]; 2.8 µM at Protein kinase C (PKC). Besides, the IC50 in test [8] is 0.024 µM; in test [9] it was 0.042 µM; in test [10], 3.8 µM; in test [3], greater than 100 µM; in test [11], 4.2 µM.

Turning to `Cn1cc(C2=C(c3cn(C4CCN(CC5CC5)CC4)c4ccccc34)C(=O)NC2=O)c2ccccc21`, the IC50 was greater than 100 µM in [1], 0.3 µM against Protein kinase C (PKC), 68 µM in test [2] and greater than 100 µM in test [3].

With `CCN1CCC(n2cc(C3=C(c4cn(C)c5ccccc45)C(=O)NC3=O)c3ccccc32)CC1`, the IC50 is 8 µM in test [1], 11 µM in test [2] and greater than 100 µM in test [3].

Consider `CN1CCC(n2cc(C3=C(c4c[nH]c5ccccc45)C(=O)NC3=O)c3ccccc32)CC1`, for which the IC50 was found to be 3 µM on CaM kinase II; 4 µM in test [1]; 0.2 µM on Protein kinase C (PKC); 83 µM in test [2]; 91 µM in test [3].

Take `Cn1cc(C2=C(c3cn(C4CCN(Cc5ccccc5)CC4)c4ccccc34)C(=O)NC2=O)c2ccccc21`: the 50% inhibitory concentration (IC50) is greater than 40 µM on CaM kinase II; greater than 100 µM in test [6]; greater than 100 µM in test [1]; 4 µM against Protein kinase C (PKC); greater than 100 µM in test [2]; greater than 40 µM in [3].

For the origin of these results see ChEMBL document CHEMBL1136405, “Acyclic N-(azacycloalkyl)bisindolylmaleimides: isozyme selective inhibitors of PKCbeta” (Bioorg Med Chem Lett, 2003).
